One block for each compound: values may come before it.
Columns and labels:
[1] = test system: UUO-induced renal fibrosis; test: UUO-induced renal fibrosis in mice, H&E staining of kidney tissues; type: in vivo, C57 mice; details: 10 days
Description: (§1) Modeling a UUO model mouse: C57 mice (male, 8 weeks old, weighing 20-25 g) were purchased from Zhejiang Vital River Laboratory Animal Technology Co., Ltd. After anesthesia, a 1-2 cm incision was made in the left kidney region of the abdomen, and the intestinal tract was carefully removed to expose the ureter. The ureter was ligated with double lines and cut off at the middle position of the double-line ligation. The intestinal tract was recovered, and the incision was stitched.
(§2) All animals were administered orally on the day of surgery. Animals in the sham group and vehicle group were administered a test drug vehicle (5% DMSO+5% Tween80+20% PEG400+70% H2O). All administration solutions were freshly prepared before use. The experiment ended 10 days after the administration.
(§3) The preparation method for the positive drug included weighing pirfenidone into a mortar, adding a small amount of 0.5% CMC-Na, grinding the mixture fully and uniformly, supplementing the mixture with the remaining 0.5% CMC-Na, and mixing well for use.
(§4) At the end of the experiment, the left kidney was taken and placed in 4% PFA for fixation. The kidney was conventionally sectioned and stained 24 h after the fixation.

[2] = Relative body weight change in UUO model mice; type: in vivo, C57 mice; details: Group 7, 250 mg/kg BID P.O
Description: as §1, §2, §3
Relative body weight change=body weight on day n/body weight on day 0×100%

[3] = test system: UUO-induced renal fibrosis; test: UUO-induced renal fibrosis in mice, Masson staining of collagen fibers in kidney tissues; type: in vivo, C57 mice
Description: as §1, §2, §3, §4

EPHA6 = target: T1, EPHA6 (Homo sapiens, UniProt Q9UF33); test: EPHA6 enzyme activity assay (HTRF); type: biochemical; details: ATP 25 μM; read-out: IC50 against EPHA6
T1 sequence (Q9UF33 23-1036): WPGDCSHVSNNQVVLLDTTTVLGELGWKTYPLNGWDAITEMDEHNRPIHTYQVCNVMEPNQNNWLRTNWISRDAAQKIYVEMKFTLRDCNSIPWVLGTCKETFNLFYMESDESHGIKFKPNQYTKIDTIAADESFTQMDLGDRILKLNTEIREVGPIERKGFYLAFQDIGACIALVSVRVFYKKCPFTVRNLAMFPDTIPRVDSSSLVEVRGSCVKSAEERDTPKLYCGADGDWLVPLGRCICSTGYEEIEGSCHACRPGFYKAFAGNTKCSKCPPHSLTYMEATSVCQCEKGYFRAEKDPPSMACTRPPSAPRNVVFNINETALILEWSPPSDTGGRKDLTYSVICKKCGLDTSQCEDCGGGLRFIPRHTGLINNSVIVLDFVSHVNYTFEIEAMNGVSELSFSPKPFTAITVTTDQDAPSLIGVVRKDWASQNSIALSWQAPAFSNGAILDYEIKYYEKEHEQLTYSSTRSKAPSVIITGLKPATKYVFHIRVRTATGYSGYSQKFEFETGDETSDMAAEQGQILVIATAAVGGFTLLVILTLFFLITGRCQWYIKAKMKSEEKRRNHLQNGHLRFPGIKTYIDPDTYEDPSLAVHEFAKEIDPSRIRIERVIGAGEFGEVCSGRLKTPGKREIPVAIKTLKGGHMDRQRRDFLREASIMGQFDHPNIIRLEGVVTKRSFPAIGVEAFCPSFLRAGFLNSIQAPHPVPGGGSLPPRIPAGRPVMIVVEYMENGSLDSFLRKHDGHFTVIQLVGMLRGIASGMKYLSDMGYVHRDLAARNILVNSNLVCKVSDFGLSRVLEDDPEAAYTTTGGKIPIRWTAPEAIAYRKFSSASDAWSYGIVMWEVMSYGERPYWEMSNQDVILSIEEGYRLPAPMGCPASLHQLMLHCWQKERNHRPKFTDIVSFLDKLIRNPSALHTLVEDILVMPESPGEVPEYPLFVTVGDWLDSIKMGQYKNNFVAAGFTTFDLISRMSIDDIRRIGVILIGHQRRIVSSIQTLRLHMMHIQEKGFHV
Method: Replicate wells were set for the assay. 2× kinase solution was prepared with 1× kinase reaction buffer (5× buffer, 5 mM MgCl2, 1 mM DTT, H2O, and 1 mM MnCl2). 2.5 μL of EPHA6 (0.5 nM, 08-125, Carna) solution was transferred to a 384 reaction plate.

F4/80 (macrophages) = test: UUO-induced renal fibrosis in mice, F4/80 immunohistochemical staining of kidney tissues; type: in vivo, C57 mice; details: 10 days
Description: as §1, §2, §3, §4

α-SMA = test: UUO-induced renal fibrosis in mice, α-SMA immunohistochemical staining of kidney tissues; type: in vivo, C57 mice
Description: as §1, §2, §3, §4

SMILES: Cc1ccc(=O)n(-c2ccccc2)c1 [pirfenidone]
H&E staining of kidney tissue, compared with the vehicle group ([1]; 250 mg/kg BID P.O): a looser glomerular structure and no significant material deposition in the renal tubular spaces
Relative body weight change ([2]; day 0): 100 ± 0.00%
Relative body weight change ([2]; day 1): 90.41 ± 0.25%
Relative body weight change ([2]; day 2): 89.78 ± 0.81%
Relative body weight change ([2]; day 3): 88.90 ± 0.75%
Relative body weight change ([2]; day 4): 90.19 ± 0.85%
Relative body weight change ([2]; day 5): 91.53 ± 0.62%
Relative body weight change ([2]; day 6): 91.83 ± 0.85%
Relative body weight change ([2]; day 7): 89.72 ± 0.68%
Relative body weight change ([2]; day 8): 90.68 ± 0.85%
Relative body weight change ([2]; day 9): 93.04 ± 0.66%
Relative body weight change ([2]; day 10): 96.16 ± 1.10%

IC50 (EPHA6): 12.8 nM
SMILES: Cc1c(C#Cc2cnc3ccc(N4CCC(O)CC4)nn23)cccc1C(=O)Nc1cc(Cl)cc(C(F)(F)F)c1 [compound 1, N-(3-chloro-5-(trifluoromethyl)phenyl)-3-((6-(4-hydroxypiperidin-1-yl)imidazo[1,2-b]pyridazin-3-yl)ethynyl)-2-methylbenzamide]
Masson staining positive area, quantitative analysis ([3]; 3 mpk QD P.O, 10 days (FIG. 3B)): significantly reduce the Masson staining positive area
Masson staining, collagen deposition in the renal tubular spaces ([3]; 3 mpk, 10 mpk, 30 mpk and 100 mpk groups, QD P.O, 10 days (FIG. 3A)): significant effect in relieving the collagen deposition
onset dose for treating renal fibrosis ([3]; UUO mice, QD P.O, 10 days): 3 mg/kg
expression levels of macrophages (F4/80) compared with the vehicle group (F4/80 (macrophages); 30 mpk and 100 mpk QD P.O): significantly reduced
expression levels of macrophages (F4/80) compared with the vehicle group (F4/80 (macrophages); each dose group (3, 10, 30, 100 mpk QD P.O)): reduced expression levels of macrophages
α-SMA positive area compared with the vehicle group (α-SMA; 3 mpk QD P.O, 10 days, P<0.05 (FIG. 4B)): significantly reduced
levels of α-SMA compared with the vehicle group (α-SMA; 10 mpk, 30 mpk and 100 mpk QD P.O, 10 days (FIG. 4B)): significantly reduced
H&E staining of kidney tissue, compared with the vehicle group ([1]; compound 1 dose groups (3, 10, 30, 100 mg/kg QD P.O)): reduced tubular atrophy, a looser glomerular structure, and no significant thickening of tubular basement membrane
